Consider 17 molecules from patent publication US10807944B2, “HDAC inhibitor compounds and methods of treatment” (priority 2014, dated 2020).

For data set [1] the following is noted: 4b, 50 mg/kg dosed orally, ref (4); cited from earlier work.
The next data set addresses HDAC5 (Homo sapiens (Human), UniProt Q9UQL6). The conditions noted are these: Table 1, literature data; read-out: Inhibitory Potency (IC50) HDAC 5; cited from earlier work.
The target of data set [2] is T1, HDAC8 (Homo sapiens (Human), UniProt Q9BY41). The conditions noted are these: Table 1, literature data; read-out: Inhibitory Potency (IC50) HDAC 8; cited from earlier work.
T1 sequence (Q9BY41 whole entry): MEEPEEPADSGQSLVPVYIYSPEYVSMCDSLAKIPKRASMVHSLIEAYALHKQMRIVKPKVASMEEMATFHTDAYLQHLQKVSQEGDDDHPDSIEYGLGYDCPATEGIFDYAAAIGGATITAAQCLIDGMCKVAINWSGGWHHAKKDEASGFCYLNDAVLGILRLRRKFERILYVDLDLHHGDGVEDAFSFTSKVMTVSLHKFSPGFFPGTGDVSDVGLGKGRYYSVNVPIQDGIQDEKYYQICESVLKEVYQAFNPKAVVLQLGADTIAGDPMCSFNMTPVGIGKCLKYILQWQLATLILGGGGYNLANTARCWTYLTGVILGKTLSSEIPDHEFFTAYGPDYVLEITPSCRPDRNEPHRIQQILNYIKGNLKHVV
A further data set addresses HDAC7 (Homo sapiens (Human), UniProt Q8WUI4). The conditions noted are these: Table 1, literature data; read-out: Inhibitory Potency (IC50) HDAC 7; cited from earlier work.
For a further data set, the target named is HDAC4 (Homo sapiens (Human), UniProt P56524). The conditions noted are these: Table 1, literature data; read-out: Inhibitory Potency (IC50) HDAC 4; cited from earlier work.
Sequence of HDAC4 (P56524 whole entry): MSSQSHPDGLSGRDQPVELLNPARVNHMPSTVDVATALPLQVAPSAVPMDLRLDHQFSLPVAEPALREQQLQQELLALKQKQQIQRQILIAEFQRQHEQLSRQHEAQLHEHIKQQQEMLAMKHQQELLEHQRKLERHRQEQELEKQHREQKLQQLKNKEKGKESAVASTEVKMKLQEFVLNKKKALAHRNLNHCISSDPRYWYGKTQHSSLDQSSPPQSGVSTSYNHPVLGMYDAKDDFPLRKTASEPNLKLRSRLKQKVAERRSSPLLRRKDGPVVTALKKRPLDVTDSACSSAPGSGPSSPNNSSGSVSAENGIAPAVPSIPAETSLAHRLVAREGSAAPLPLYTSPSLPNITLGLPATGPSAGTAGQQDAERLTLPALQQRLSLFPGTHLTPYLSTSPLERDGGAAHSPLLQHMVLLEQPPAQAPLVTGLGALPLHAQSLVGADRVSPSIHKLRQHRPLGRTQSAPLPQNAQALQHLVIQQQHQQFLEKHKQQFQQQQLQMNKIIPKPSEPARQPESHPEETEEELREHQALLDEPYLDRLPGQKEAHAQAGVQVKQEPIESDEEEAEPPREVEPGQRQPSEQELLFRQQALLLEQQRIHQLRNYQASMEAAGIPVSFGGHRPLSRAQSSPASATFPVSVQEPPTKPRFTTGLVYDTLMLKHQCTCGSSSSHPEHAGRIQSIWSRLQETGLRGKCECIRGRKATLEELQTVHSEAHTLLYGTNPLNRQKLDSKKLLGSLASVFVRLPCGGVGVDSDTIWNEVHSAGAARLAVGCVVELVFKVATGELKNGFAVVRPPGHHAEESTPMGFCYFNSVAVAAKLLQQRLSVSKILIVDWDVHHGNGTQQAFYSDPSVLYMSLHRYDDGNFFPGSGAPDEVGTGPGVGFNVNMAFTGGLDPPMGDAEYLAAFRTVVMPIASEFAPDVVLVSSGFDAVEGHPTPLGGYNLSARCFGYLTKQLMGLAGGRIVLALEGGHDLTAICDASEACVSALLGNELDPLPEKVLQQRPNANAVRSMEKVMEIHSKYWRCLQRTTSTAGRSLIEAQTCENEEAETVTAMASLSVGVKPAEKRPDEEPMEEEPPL
In the next data set the target is HDAC10 (Homo sapiens (Human), UniProt Q969S8). Particulars: Table 1, literature data; read-out: Inhibitory Potency (IC50) HDAC 10; cited from earlier work.
Sequence of HDAC10 (Q969S8 whole entry): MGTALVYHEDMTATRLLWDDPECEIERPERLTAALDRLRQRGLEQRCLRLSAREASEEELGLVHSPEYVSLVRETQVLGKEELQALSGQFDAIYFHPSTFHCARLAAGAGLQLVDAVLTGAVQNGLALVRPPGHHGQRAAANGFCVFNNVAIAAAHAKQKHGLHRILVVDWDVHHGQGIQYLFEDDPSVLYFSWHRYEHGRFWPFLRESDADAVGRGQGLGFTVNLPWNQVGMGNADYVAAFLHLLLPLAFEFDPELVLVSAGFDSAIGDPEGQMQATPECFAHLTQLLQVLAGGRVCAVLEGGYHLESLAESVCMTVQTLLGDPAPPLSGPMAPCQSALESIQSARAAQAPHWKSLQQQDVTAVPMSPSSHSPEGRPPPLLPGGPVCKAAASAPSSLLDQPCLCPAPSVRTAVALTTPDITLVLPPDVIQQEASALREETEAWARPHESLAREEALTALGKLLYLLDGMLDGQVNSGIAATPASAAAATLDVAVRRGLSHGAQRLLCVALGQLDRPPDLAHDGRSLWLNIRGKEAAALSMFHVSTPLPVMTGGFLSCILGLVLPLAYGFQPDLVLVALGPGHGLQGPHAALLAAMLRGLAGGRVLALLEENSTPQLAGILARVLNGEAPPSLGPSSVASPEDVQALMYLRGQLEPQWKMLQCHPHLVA
The target of a further data set is HDAC9 (Homo sapiens (Human), UniProt Q9UKV0). The conditions noted are these: Table 1, literature data; read-out: Inhibitory Potency (IC50) HDAC 9; cited from earlier work.
For data set [3] the following is noted: rat, ref (6); cited from earlier work.
Data set [4] has as its system HCT116 cells. The experiment in a line: Histone acetylation by Western blotting. In kind it is cell-based. Particulars: for accumulation of acetylated histones: HCT116, 1 h exposure, TSA 0.2 μM, others 2 μM (FIG. 1A). (In general: Immunoblotting shows a protein as a band on a membrane.)
Data set [5] has as its system HCT116 cells. As to the kind of experiment: H3K18ac after 6 h pulse treatment and drug washout. The data set is classed as cell-based. The conditions noted are these: for time at which histone acetylation (H3K18ac) was induced: HCT116, 6 h pulse exposure; for time up to which induced acetylation was maintained: HCT116, 6 h pulse then drug washout, time after drug addition.

A further data set can be described thus: in vivo. Particulars: rat.
Data set [6] deals with T2, HDAC1 (Homo sapiens (Human), UniProt Q13547). The experiment in a line: HDAC1 in vitro inhibition, dose response. The data set is classed as biochemical. The conditions noted are these: Table 2; read-out: HDAC 1 IC50.
T2 sequence (Q13547 whole entry): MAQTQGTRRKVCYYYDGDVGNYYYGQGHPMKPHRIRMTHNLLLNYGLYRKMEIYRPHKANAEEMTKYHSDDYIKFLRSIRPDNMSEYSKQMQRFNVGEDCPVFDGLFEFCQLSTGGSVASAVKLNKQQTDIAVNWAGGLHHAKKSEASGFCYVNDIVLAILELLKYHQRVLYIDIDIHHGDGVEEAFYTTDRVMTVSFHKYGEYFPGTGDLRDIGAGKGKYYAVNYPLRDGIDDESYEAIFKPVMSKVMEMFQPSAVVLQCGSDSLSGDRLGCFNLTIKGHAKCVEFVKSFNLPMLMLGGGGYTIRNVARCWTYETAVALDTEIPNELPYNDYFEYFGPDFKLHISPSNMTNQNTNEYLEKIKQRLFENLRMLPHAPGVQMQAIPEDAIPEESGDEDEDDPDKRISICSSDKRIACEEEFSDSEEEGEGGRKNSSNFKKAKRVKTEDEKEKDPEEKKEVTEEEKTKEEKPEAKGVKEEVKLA
In data set [7] the test system is HepG2 cells.
In data set [8] the target is T3, HDAC2 (Homo sapiens (Human), UniProt Q92769). The experiment in a line: HDAC2 in vitro inhibition, dose response. In kind it is biochemical. Particulars: Table 2; read-out: HDAC 2 IC50.
T3 sequence (Q92769 whole entry): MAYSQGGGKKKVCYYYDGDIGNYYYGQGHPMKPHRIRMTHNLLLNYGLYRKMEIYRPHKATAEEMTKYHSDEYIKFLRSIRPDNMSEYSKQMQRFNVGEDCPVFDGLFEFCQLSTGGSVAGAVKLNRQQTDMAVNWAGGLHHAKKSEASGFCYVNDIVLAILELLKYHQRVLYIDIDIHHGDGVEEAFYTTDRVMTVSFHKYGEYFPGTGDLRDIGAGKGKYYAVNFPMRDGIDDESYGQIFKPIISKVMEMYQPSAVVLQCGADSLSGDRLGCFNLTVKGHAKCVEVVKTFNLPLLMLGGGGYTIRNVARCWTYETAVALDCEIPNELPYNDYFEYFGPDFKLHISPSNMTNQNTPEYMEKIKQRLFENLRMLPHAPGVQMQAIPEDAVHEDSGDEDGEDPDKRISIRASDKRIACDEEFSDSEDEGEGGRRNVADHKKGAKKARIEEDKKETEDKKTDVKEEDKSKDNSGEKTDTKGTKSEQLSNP
Data set [9] has as its target T4, HDAC3 (Homo sapiens (Human), UniProt O15379). The experiment in a line: HDAC3 in vitro inhibition, dose response. The data set is classed as biochemical. The conditions noted are these: Table 2; read-out: HDAC 3 IC50.
Data set [10] deals with T1, HDAC8. The experiment in a line: HDAC8 in vitro inhibition, dose response. In kind it is biochemical. The conditions noted are these: Table 2; read-out: HDAC 8 IC50.
The subject of data set [11] is HepG2 cells. The experiment in a line: cells. The conditions noted are these: Homo sapiens.
Another data set concerns the target HDAC6 (Homo sapiens (Human), UniProt Q9UBN7). The experiment in a line: HDAC6 in vitro inhibition, dose response. The data set is classed as biochemical. Particulars: Table 2; read-out: HDAC 6 IC50.
Data set [12] concerns the target T2, HDAC1. The conditions noted are these: Table 1, literature data; read-out: Inhibitory Potency (IC50) HDAC 1; cited from earlier work.
The subject of data set [13] is Ad-MLP-Luc reporter in HCT116 cell line. As to the kind of experiment: Ad-MLP-Luc luciferase reporter activation. The data set is classed as cell-based. Particulars: HCT116, dose-dependent.
The target of data set [14] is T2, HDAC1. The experiment in a line: In vitro HDAC1 inhibition of HTS hits (HDAC I/II-Glo reagents). The data set is classed as biochemical. The conditions noted are these: HTS follow-up.
The target of data set [15] is T3, HDAC2. The experiment in a line: HDAC-2 inhibition potency, luminescence readout. The data set is classed as biochemical. The conditions noted are these: Table 6, luminescence readout. The source says: (§1) Compounds were examined for their HDAC inhibitory activity and their effect on cancer cell viability (MDA-MB-231 cells).
The target of data set [16] is T4, HDAC3. As to the kind of experiment: HDAC-3 inhibition potency, luminescence readout. In kind it is biochemical. Particulars: Table 6, luminescence readout.
The target of data set [17] is T2, HDAC1. As to the kind of experiment: HDAC-1 inhibition potency, luminescence readout. In kind it is biochemical. Particulars: Table 6, luminescence readout.
Description: as §1

For the next data set, the system named is MDA-MB-231 cells. The experiment in a line: Cancer cell viability (CellTiter-Glo). In kind it is cell-based. Particulars: for IC50: Homo sapiens, MDA-MB-231, read-out: Cancer cell (MDA-MB-231) killing IC50. (In general: Cellular ATP, detected with luciferase, serves as a proxy for viable cell number.)
For another data set, the system named is HCT116 and A549 cells. As to the kind of experiment: Acetylation of non-histone proteins by Western blotting. In kind it is cell-based. The conditions noted are these: HCT116 and A549, 1 h; TSA 0.2 μM, UF010 2 μM.

Where two headings read alike, the source gives them in different places.

T4 sequence (O15379 whole entry): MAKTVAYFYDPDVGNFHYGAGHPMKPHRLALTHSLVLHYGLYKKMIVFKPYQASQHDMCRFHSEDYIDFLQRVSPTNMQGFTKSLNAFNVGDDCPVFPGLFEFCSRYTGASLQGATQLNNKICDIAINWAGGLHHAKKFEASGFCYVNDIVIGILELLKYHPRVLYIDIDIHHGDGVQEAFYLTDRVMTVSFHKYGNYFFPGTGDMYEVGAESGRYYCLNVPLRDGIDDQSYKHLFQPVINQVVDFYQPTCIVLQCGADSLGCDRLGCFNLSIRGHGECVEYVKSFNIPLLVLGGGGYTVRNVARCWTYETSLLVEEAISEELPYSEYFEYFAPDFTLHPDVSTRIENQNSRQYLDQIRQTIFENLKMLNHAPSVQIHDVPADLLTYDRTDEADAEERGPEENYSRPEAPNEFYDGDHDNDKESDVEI
T4 sequence (Q9Y618 395-489 partner): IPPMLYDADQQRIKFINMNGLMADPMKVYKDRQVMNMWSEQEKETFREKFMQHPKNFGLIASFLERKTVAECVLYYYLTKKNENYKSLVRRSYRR
Sequence of HDAC6 (Q9UBN7 whole entry): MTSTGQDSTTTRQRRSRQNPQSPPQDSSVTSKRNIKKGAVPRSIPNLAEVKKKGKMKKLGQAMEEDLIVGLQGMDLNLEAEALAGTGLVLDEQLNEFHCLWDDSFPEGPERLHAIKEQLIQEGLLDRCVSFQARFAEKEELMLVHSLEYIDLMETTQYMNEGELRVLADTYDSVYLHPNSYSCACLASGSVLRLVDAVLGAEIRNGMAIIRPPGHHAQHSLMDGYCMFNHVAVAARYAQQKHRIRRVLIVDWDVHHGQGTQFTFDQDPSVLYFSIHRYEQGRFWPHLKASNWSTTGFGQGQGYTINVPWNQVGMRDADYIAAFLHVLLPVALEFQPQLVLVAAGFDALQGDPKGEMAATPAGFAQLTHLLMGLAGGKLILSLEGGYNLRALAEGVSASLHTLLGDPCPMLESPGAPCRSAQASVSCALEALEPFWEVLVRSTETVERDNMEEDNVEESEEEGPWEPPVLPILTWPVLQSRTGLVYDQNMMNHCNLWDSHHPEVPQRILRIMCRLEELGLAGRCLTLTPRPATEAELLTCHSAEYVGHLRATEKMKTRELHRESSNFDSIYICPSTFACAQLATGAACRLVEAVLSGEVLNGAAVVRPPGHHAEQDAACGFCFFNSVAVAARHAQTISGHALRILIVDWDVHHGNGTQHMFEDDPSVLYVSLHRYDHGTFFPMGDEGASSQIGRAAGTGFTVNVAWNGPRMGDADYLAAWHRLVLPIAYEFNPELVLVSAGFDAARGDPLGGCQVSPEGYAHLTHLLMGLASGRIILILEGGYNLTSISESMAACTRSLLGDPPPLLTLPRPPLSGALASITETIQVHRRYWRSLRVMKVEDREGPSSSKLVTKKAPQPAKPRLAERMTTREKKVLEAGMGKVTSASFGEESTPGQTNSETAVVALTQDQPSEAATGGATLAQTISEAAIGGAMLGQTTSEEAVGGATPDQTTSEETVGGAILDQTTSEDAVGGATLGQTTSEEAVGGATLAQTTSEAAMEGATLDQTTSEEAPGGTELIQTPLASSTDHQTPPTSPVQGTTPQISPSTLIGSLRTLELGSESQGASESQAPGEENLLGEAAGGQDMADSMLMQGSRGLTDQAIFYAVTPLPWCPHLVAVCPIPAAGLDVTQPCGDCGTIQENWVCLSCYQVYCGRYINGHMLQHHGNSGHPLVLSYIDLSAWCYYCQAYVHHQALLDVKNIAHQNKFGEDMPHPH

As usually defined, the AUC is the area under the concentration-time curve, a measure of exposure. For orientation: Cmax means the maximum level reached in the sampled fluid or tissue. The term Tmax denotes the time at which the peak concentration occurs. As for `Nc1ccccc1NC(=O)CCCCCC(=O)Nc1ccccc1` [Compound 4b], in data set [1], the AUC is 1.08 µM·h, the peak concentration (Cmax) was 1130 nM, the T1/2 was 2.76 h and the Tmax is 0.25 h.
As a reminder, the IC50 is the concentration that inhibits the measured activity by half. In the case of `CC(=O)Nc1ccc(C(=O)Nc2cc(-c3cccs3)ccc2N)cc1` [Cpd60], the IC50 on HDAC5 was over 30 µM; at HDAC8 [2] it was over 30 µM; at HDAC7, over 30 µM; at HDAC4 it was over 30 µM; at HDAC10, 3.4 µM; at HDAC9, over 30 µM.
Consider `Nc1ccccc1NC(=O)c1ccc(CNC(=O)OCc2cccnc2)cc1` [MS-275, entinostat], for which the MTD in [3] is 3.1 mg/kg. In the data set on HCT116 cells [4], the “accumulation of acetylated histones” value is given as “only slightly induced acetylation at several sites but failed to induce acetylation at most sites”. Also, in the data set on HCT116 cells [5], the “time at which histone acetylation (H3K18ac) was induced” value is 18 h and the “time up to which induced acetylation was maintained” value is reported as “at least 48 h”. The same molecule returned an MTD in the data set “in vivo” of about 1.5 mg/kg.
Turning to `CCCCNNC(=O)c1ccccc1` [RLS2-125, N′-butylbenzohydrazide], the IC50 on HDAC1 [6], on HDAC2 [8] and at HDAC3 [9] was over 50 µM in each case. Moreover, the “growth inhibition for HepG2” value with HepG2 cells [7] (HepG2, 96 h) was “little to no growth inhibition”.
In the case of `CCCCNNC(=O)c1ccc(N(C)C)cc1` [RLS2-131, N′-butyl-4-(dimethylamino)benzohydrazide], the IC50 at HDAC1 [6] was determined as 0.23 µM; at HDAC8 [10], 13.1 µM; in the data set with HepG2 cells [11] (HepG2, read-out: IC50 Control), 1.5 µM; with HepG2 cells [11] (HepG2, read-out: IC50 HDAC1 shRNA), 1.8 µM; in the data set on HepG2 cells [11] (HepG2, read-out: IC50 HDAC2 shRNA), 2 µM; in the data set with HepG2 cells [11] (HepG2, read-out: IC50 HDAC3 shRNA) it was 0.2 µM. Also, the IC50 was 0.88 µM on HDAC2 [8], over 50 µM at HDAC6 and 0.12 µM on HDAC3 [9]. Further, the “inhibition of cellular HDACs (H4K5ac, H3K18ac)” value with HCT116 cells [4] (HCT116, 0.5 μM, 24 h (FIG. 1B)) was “potent inhibition of cellular HDACs”. In addition, the “potency against HepG2 relative to UF010” value with HepG2 cells [7] (HepG2) came to 3 fold.
For the molecule `CCCCNNC(=O)c1ccc(C(C)(C)C)cc1` [RLS2-211, 4-tert-butyl-N′-butylbenzohydrazide], the IC50 at HDAC1 [6] was 0.19 µM; on HDAC8 [10] it was 0.045 µM; at HDAC2 [8], 1.04 µM; on HDAC6, 0.045 µM; at HDAC3 [9] it was 0.07 µM.
`CCCCNNC(=O)c1ccc(CN=[N+]=[N-])cc1` [RLS2-312, 4-(azidomethyl)-N′-butylbenzohydrazide]: the IC50 at HDAC1 [6] was found to be 0.32 µM; at HDAC2 [8], 0.527 µM; at HDAC6, 0.009 µM; on HDAC3 [9], 0.15 µM.
`CCCCNNC(=O)c1ccc(-c2ccccc2)cc1` [RLS3-43, N′-butylbiphenyl-4-carbohydrazide]: the IC50 at HDAC1 [6] is 0.09 µM; at HDAC8 [10], 2.43 µM; on HDAC2 [8], 0.8 µM.
`C/C=C1\NC(=O)[C@H]2CSSCC/C=C/[C@H](CC(=O)N[C@H](C(C)C)C(=O)N2)OC(=O)[C@H](C(C)C)NC1=O` [Romidepsin, romidepsin]: the IC50 on HDAC1 [12] was 0.002 µM. For the same molecule, in the data set on HCT116 cells [5], the “time at which histone acetylation (H3K18ac) was induced” value is reported as “quickly induced acetylation” and the “time up to which induced acetylation was maintained” value is recorded as “up to 24 h”. The IC50 at HDAC4 was 0.03 µM. In addition, the Ad-MLP-Luc reporter activity result in data set [13] was “dramatically increased”.
Turning to `O=C(CCCCCCC(=O)Nc1ccccc1)NO` [SAHA, vorinostat, reference compound], the “potency of HDAC1 inhibition in vitro” value on HDAC1 [14] was under 10 µM.
`CCCCNNC(=O)c1ccccc1-c1ccccc1` [SR-3459]: the “HDAC inhibition potency (IC50) HDAC2” value on HDAC2 [15] is listed as “No inhibition”. Further, at HDAC3 [16], the “HDAC inhibition potency (IC50) HDAC3” value is given as “No inhibition”. Moreover, the “HDAC inhibition potency (IC50) HDAC1” value at HDAC1 [17] is reported as “No inhibition”. Moreover, the IC50 in the data set with MDA-MB-231 cells is over 100 µM. Besides, the “effect on cancer cell viability” value in the data set on MDA-MB-231 cells (MDA-MB-231) is given as “does not impair cancer cell viability”.
For the molecule `CCCCNNC(=O)c1ccc(-c2ccccc2)cc1` [SR-3558], the IC50 on HDAC2 [15] came out at 0.8 µM; against HDAC1 [17], 0.09 µM; in the data set with MDA-MB-231 cells, 12.3 µM.
As for `CCCCNNC(=O)c1ccc(-c2cccc(F)c2F)cc1` [SR-4370, N′-butyl-2′,3′-difluorobiphenyl-4-carbohydrazide], the IC50 on HDAC1 [6] was found to be 0.13 µM; on HDAC8 [10], 2.3 µM; against HDAC2 [15] it was 0.58 µM; on HDAC3 [16], 0.006 µM; on HDAC2 [8], 0.58 µM; on HDAC1 [17] it was 0.13 µM. In addition, the 50% inhibitory concentration (IC50) on HDAC6 amounted to 3.7 µM; in the data set on MDA-MB-231 cells, 12.6 µM; on HDAC3 [9] it was 0.006 µM.
As for `CCCCNNC(=O)c1ccc(-c2cc(C)cc(F)c2)cc1` [SR-4372, N′-butyl-3′-fluoro-5′-methylbiphenyl-4-carbohydrazide], the 50% inhibitory concentration (IC50) turned out to be 0.76 µM at HDAC1 [6]; 3.6 µM at HDAC8 [10]; 1.2 µM on HDAC2 [8]; 3.7 µM at HDAC6; 0.38 µM on HDAC3 [9].
As for `CCCCNNC(=O)c1ccc(-c2cc(C(=O)OCC)ccc2F)cc1` [SR-4373, ethyl 4′-(2-butylhydrazinecarbonyl)-6-fluorobiphenyl-3-carboxylate], the half-inhibitory concentration (IC50) on HDAC1 [6] is 1.3 µM; on HDAC6 it was 6.5 µM; at HDAC3 [9] it was 0.42 µM.
With `CC(/C=C/C(=O)NO)=C\[C@@H](C)C(=O)c1ccc(N(C)C)cc1` [TSA, Trichostatin A, reference compound], the α-tubulin acetylation entry with HCT116 and A549 cells was “dramatically increased”. In the data set on HCT116 cells [4], the “accumulation of acetylated histones” value is listed as “strongly induced acetylation at some sites but weakly at other sites”.
With “N′-butyl-3-fluorobenzohydrazide [RLS2-306]”, the half-inhibitory concentration (IC50) at HDAC1 [6] is 8.63 µM; at HDAC2 [8] it was 10.9 µM; at HDAC3 [9], 4.77 µM.
